Assay results reported in PMC11705763, “Tumor-associated antigen prediction using a single-sample gene expression state inference algorithm” (Cell Reports Methods, 2024).

Experiments:
[1] = test system: CD8+ T cell cultures / PBMCs from healthy donors; test: IFN-gamma ELISpot assay; type: cell-based, human; parameters: Donor1_value / Donor3_value / Donor4_value: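 Spot-forming units per 100000 cells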; conditions: IFN-gamma ELISpot result; for Donor1_value: healthy donor 1; for Donor2_value: healthy donor 2; for Donor3_value: healthy donor 3; for Donor4_value: healthy donor 4;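 on Donor2 value: Spot-forming units per 100000 cells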
Description: We experimentally assessed the binding affinity of the 38 peptides through a competitive peptide binding assay (STAR Methods). […] Subsequently, we investigated the immunogenicity of these peptides using an interferon (IFN)-gamma ELISpot assay (STAR Methods). […] These peptides represent promising candidates for further investigation as potential immunotherapy targets. Peripheral blood mononuclear cells (PBMCs) from healthy donors were isolated at Zhongshan Hospital, Fudan University using Lymphoprep (07851, Stemcell) and cultured with ImmunoCult-XF T cell Expansion Medium (10981, Stemcell) supplemented with human recombinant IL-2 (78036, Stemcell). ImmunoCult Human CD3/CD28 T cell Activator (10971, Stemcell) was added to the cell suspension, which was then incubated for 3 days. Subsequent expansion of the cell suspension was carried out every two days as per manufacturer's instructions. The entire process was approved by the Institutional Review Board of Zhongshan Hospital, Fudan University (B2024-412). ELISPOT plates (2110003, […]) were pretreated with PBS before dispensing cell suspensions (nearly 1×10^5 cells) with synthesized peptide (10 μg/mL) into each well. After incubation at 37°C in a CO2 incubator for 20 h, plates were washed and incubated with anti-human IFN-γ followed by Streptavidin-HRP. Staining of Streptavidin-HRP was performed using AEC solution, and the reaction was stopped by rinsing with cold tap water. ELISPOT plates were scanned and counted using an ImmunoSpot plate reader and associated software from Cellular Technologies, Ltd.

HLA-A02:01 = HLA-A02:01 (Homo sapiens, UniProt P04439, D140Y/D185E/D98H/E176V/E277Q/G131W/G231S/I119V/I121R/I166T/I218V/L300P/L318F/N151K/N90K/P208A/P217A/Q86G/Q94H/R138H/R169H/T345S); test: Peptide-MHC tetramer exchange assay (competitive peptide binding, QuickSwitch Quant HLA-A02:01 tetramer); conditions: percentage of replacement of the exchangeable peptide by the test peptide

Row | Sequence | Donor1_value [1] | Donor2_value [1] | Donor3_value [1] | Donor4_value [1] | Q1_Replacement_Percentage (HLA-A02:01) [%]
1 | LLFGLALIEV | 28 | 42 | 7 | 0 | –
2 | LLQISNWFI | 30 | 0 | 30 | 0 | 32.7
3 | YLHEQVKTI | 0 | 59 | 24 | 9 | 83.5
4 | YRLADHVGCV | 0 | 30 | 9 | 0 | 56.3
5 | FLSTLTTFI | 0 | 41 | 15 | 0 | 89.1
6 | LLASYNDDDIYL | 426 | 0 | 3 | 8 | 98.2
7 | FLAKLNNTV | 2 | 56 | 18 | 0 | 88.1
8 | GLAEYLFDKLTL | 584 | 0 | 9 | 0 | 89.8
9 | KVLEFLAKL | 545 | 58 | 12 | 0 | 88.2
10 | LQILQDGQFLV | 0 | 0 | 32 | 0 | 81.9
11 | AMLKNTVPI | 0 | 0 | 18 | 0 | 89.9
12 | KLLMPLLGV | 384 | 0 | 0 | 13 | 97.9
13 | YMLWFLLRHV | 0 | 0 | 29 | 0 | 32.4
14 | ILFGISLREV | 0 | 24 | 20 | 8 | 96.2
15 | GLLMPLLGV | 521 | 32 | 1 | 11 | 91.1
16 | RLELVFGL | 0 | 0 | 8 | 0 | 23.4
17 | FLWGPRAHSEV | 558 | 0 | 10 | 18 | 90.4
18 | VIWDVLSGI | 678 | 0 | 0 | 1 | 95.5
19 | YVKVLEYVIKV | 0 | 56 | 17 | 0 | 14.7

Row | Sequence | Donor1_value [1] | Donor2_value [1] | Donor3_value [1] | Donor4_value [1] | Q1_Replacement_Percentage (HLA-A02:01) [%]
20 | GLLMPLLGVIFL | 4 | 33 | 8 | 0 | 78.9
21 | RKLLMPLLGV | 0 | 0 | 16 | 0 | 22.9
22 | QILQDGQFLV | 451 | 37 | 0 | 17 | 94
23 | LVLGTLEEV | 666 | 17 | 15 | 11 | 85.1
24 | KVADLVGFLL | 570 | 0 | 2 | 0 | 84.3
25 | FLLLVDAAV | 571 | 34 | 0 | 12 | 83.5
26 | FLTSGEDAV | 494 | 21 | 0 | 0 | 98.3
27 | FLNEACLFEI | 606 | 0 | 7 | 10 | 92
28 | FLYEVFAQL | 654 | 7 | 4 | 0 | 92.7
29 | FLLLVDAAVQ | 0 | 31 | 16 | 0 | 29.3
30 | YTLDEKVAEL | 640 | 29 | 2 | 0 | 91.1
31 | YIYDILLPV | 17 | 54 | 19 | 0 | 88.9
32 | LLMPLLGVI | 627 | 0 | 11 | 48 | 96.3
33 | VLLPASLFI | 634 | 26 | 0 | 0 | 94.8
34 | GLLMPLLGVI | 631 | 10 | 3 | 0 | 91.4
35 | FLRFANYCRI | 0 | 8 | 8 | 0 | 30
36 | SLLDLYQLA | 0 | 1 | 0 | 0 | 91.5
37 | KVLEYVIKV | 0 | 23 | 19 | 0 | 80.8
38 | KMKVLEFLAKV | 0 | 2 | 18 | 0 | 42.8
